{"source": "ChEMBL document CHEMBL4613212", "about": "“Insights of synthetic analogues of anti-leprosy agents” (Bioorg Med Chem, 2019)", "format_in_all_cases": "functional", "key": {"Mycobacterium leprae [1]": {"tested_on": "Mycobacterium leprae", "test": "Anti-leprotic activity against Mycobacterium leprae primary cultures at 4 weeks assessed as ATP level per 10^7 cells at 0.5 mg/L measured by bioluminescence assay (reference value: 314 +/- 46 pg)"}, "Mycobacterium leprae [2]": {"tested_on": "Mycobacterium leprae", "test": "Anti-leprotic activity against Mycobacterium leprae primary cultures at 4 weeks assessed as ATP level per 10^7 cells at 1.0 mg/L measured by bioluminescence assay (reference value: 314 +/- 46 pg)"}, "Mycobacterium leprae [3]": {"tested_on": "Mycobacterium leprae", "test": "Anti-leprotic activity against Mycobacterium leprae primary cultures at 4 weeks assessed as ATP level per 10^7 cells at 5.0 mg/L measured by bioluminescence assay (reference value: 314 +/- 46 pg)"}, "Mycobacterium leprae [4]": {"tested_on": "Mycobacterium leprae", "test": "Anti-leprotic activity against Mycobacterium leprae primary cultures at 4 weeks assessed as ATP level per 10^7 cells at 10.0 mg/L measured by bioluminescence assay (reference value: 314 +/- 46 pg)"}, "Mycobacterium leprae [5]": {"tested_on": "Mycobacterium leprae", "test": "Anti-leprotic activity against Mycobacterium leprae primary cultures at 4 weeks assessed as ATP level per 10^7 cells at 15.0 mg/L measured by bioluminescence assay (reference value: 314 +/- 46 pg)"}, "Mycobacterium leprae [6]": {"tested_on": "Mycobacterium leprae", "test": "Anti-leprotic activity against Mycobacterium leprae primary cultures at 4 weeks assessed as ATP level per 10^7 cells at 20.0 mg/L measured by bioluminescence assay (reference value: 314 +/- 46 pg)"}, "Mycobacterium leprae [7]": {"tested_on": "Mycobacterium leprae", "test": "Anti-leprotic activity against Mycobacterium leprae primary cultures at 4 weeks assessed as [3H]thymidine uptake per 5 times 10^7 cells at 0.5 mg/L (reference value: 0.95 +/- 0.01 pmol)"}, "Mycobacterium leprae [8]": {"tested_on": "Mycobacterium leprae", "test": "Anti-leprotic activity against Mycobacterium leprae primary cultures at 4 weeks assessed as [3H]thymidine uptake per 5 times 10^7 cells at 1.0 mg/L (reference value: 0.95 +/- 0.01 pmol)"}, "Mycobacterium leprae [9]": {"tested_on": "Mycobacterium leprae", "test": "Anti-leprotic activity against Mycobacterium leprae primary cultures at 4 weeks assessed as [3H]thymidine uptake per 5 times 10^7 cells at 5.0 mg/L (reference value: 0.95 +/- 0.01 pmol)"}, "Mycobacterium leprae [10]": {"tested_on": "Mycobacterium leprae", "test": "Anti-leprotic activity against Mycobacterium leprae primary cultures at 4 weeks assessed as [3H]thymidine uptake per 5 times 10^7 cells at 10.0 mg/L (reference value: 0.95 +/- 0.01 pmol)"}, "Mycobacterium leprae [11]": {"tested_on": "Mycobacterium leprae", "test": "Anti-leprotic activity against Mycobacterium leprae primary cultures at 4 weeks assessed as [3H]thymidine uptake per 5 times 10^7 cells at 15.0 mg/L (reference value: 0.95 +/- 0.01 pmol)"}, "Mycobacterium leprae [12]": {"tested_on": "Mycobacterium leprae", "test": "Anti-leprotic activity against Mycobacterium leprae primary cultures at 4 weeks assessed as [3H]thymidine uptake per 5 times 10^7 cells at 20.0 mg/L (reference value: 0.95 +/- 0.01 pmol)"}, "Mycobacterium leprae [13]": {"tested_on": "Mycobacterium leprae", "test": "Anti-leprotic activity against Mycobacterium leprae subcultures at 4 weeks assessed as ATP level per 10^7 cells at 0.5 mg/L measured by bioluminescence assay (reference value: 462 +/- 64 pg)"}, "Mycobacterium leprae [14]": {"tested_on": "Mycobacterium leprae", "test": "Anti-leprotic activity against Mycobacterium leprae subcultures at 4 weeks assessed as ATP level per 10^7 cells at 1.0 mg/L measured by bioluminescence assay (reference value: 462 +/- 64 pg)"}, "Mycobacterium leprae [15]": {"tested_on": "Mycobacterium leprae", "test": "Anti-leprotic activity against Mycobacterium leprae subcultures at 4 weeks assessed as ATP level per 10^7 cells at 5.0 mg/L measured by bioluminescence assay (reference value: 462 +/- 64 pg)"}, "Mycobacterium leprae [16]": {"tested_on": "Mycobacterium leprae", "test": "Anti-leprotic activity against Mycobacterium leprae subcultures at 4 weeks assessed as ATP level per 10^7 cells at 10.0 mg/L measured by bioluminescence assay (reference value: 462 +/- 64 pg)"}, "Mycobacterium leprae [17]": {"tested_on": "Mycobacterium leprae", "test": "Anti-leprotic activity against Mycobacterium leprae subcultures at 4 weeks assessed as ATP level per 10^7 cells at 15.0 mg/L measured by bioluminescence assay (reference value: 462 +/- 64 pg)"}, "Mycobacterium leprae [18]": {"tested_on": "Mycobacterium leprae", "test": "Anti-leprotic activity against Mycobacterium leprae subcultures at 4 weeks assessed as ATP level per 10^7 cells at 20.0 mg/L measured by bioluminescence assay (reference value: 462 +/- 64 pg)"}, "Mycobacterium leprae [19]": {"tested_on": "Mycobacterium leprae", "test": "Anti-leprotic activity against Mycobacterium leprae subcultures at 4 weeks assessed as [3H]thymidine uptake per 5 times 10^7 cells at 0.5 mg/L (reference value: 1.28 +/- 0.14 pmol)"}, "Mycobacterium leprae [20]": {"tested_on": "Mycobacterium leprae", "test": "Anti-leprotic activity against Mycobacterium leprae subcultures at 4 weeks assessed as [3H]thymidine uptake per 5 times 10^7 cells at 1.0 mg/L (reference value: 1.28 +/- 0.14 pmol)"}, "Mycobacterium leprae [21]": {"tested_on": "Mycobacterium leprae", "test": "Anti-leprotic activity against Mycobacterium leprae subcultures at 4 weeks assessed as [3H]thymidine uptake per 5 times 10^7 cells at 5.0 mg/L (reference value: 1.28 +/- 0.14 pmol)"}, "Mycobacterium leprae [22]": {"tested_on": "Mycobacterium leprae", "test": "Anti-leprotic activity against Mycobacterium leprae subcultures at 4 weeks assessed as [3H]thymidine uptake per 5 times 10^7 cells at 10.0 mg/L (reference value: 1.28 +/- 0.14 pmol)"}, "Mycobacterium leprae [23]": {"tested_on": "Mycobacterium leprae", "test": "Anti-leprotic activity against Mycobacterium leprae subcultures at 4 weeks assessed as [3H]thymidine uptake per 5 times 10^7 cells at 15.0 mg/L (reference value: 1.28 +/- 0.14 pmol)"}, "Mycobacterium leprae [24]": {"tested_on": "Mycobacterium leprae", "test": "Anti-leprotic activity against Mycobacterium leprae subcultures at 4 weeks assessed as [3H]thymidine uptake per 5 times 10^7 cells at 20.0 mg/L (reference value: 1.28 +/- 0.14 pmol)"}, "Mycobacterium leprae [25]": {"tested_on": "Mycobacterium leprae", "test": "Antimicrobial activity against Mycobacterium leprae"}, "[26]": {"tested_on": "Mycobacterium tuberculosis", "test": "Antimycobacterial activity against Mycobacterium tuberculosis H37Rv infected in CF-1 mouse assessed as change in survival time at 5 mg/kg administrated daily for 14 days with food relative to control"}, "[27]": {"tested_on": "Mycobacterium tuberculosis", "test": "Antimycobacterial activity against Mycobacterium tuberculosis H37Rv infected in CF-1 mouse assessed as change in survival time at 3 mg/kg administrated daily for 14 days with food relative to control"}, "[28]": {"tested_on": "Mycobacterium tuberculosis", "test": "Antimycobacterial activity against Mycobacterium tuberculosis H37Rv infected in CF-1 mouse assessed as change in survival time at 24 mg/kg administrated daily for 14 days with food relative to control"}, "[29]": {"tested_on": "Mycobacterium tuberculosis", "test": "Antimycobacterial activity against Mycobacterium tuberculosis H37Rv infected in CF-1 mouse assessed as change in survival time at 12 mg/kg administrated daily for 14 days with food relative to control"}, "[30]": {"tested_on": "Mycobacterium tuberculosis", "test": "Antimycobacterial activity against Mycobacterium tuberculosis H37Rv infected in CF-1 mouse assessed as change in survival time at 42 mg/kg administrated daily for 14 days with food relative to control"}, "[31]": {"tested_on": "Mycobacterium tuberculosis", "test": "Antimycobacterial activity against Mycobacterium tuberculosis H37Rv infected in CF-1 mouse assessed as change in survival time at 8 mg/kg administrated daily for 14 days with food relative to control"}, "[32]": {"tested_on": "Mycobacterium tuberculosis", "test": "Antimycobacterial activity against Mycobacterium tuberculosis H37Rv infected in CF-1 mouse assessed as change in survival time at 4 mg/kg administrated daily for 14 days with food relative to control"}, "[33]": {"tested_on": "Mycobacterium tuberculosis", "test": "Antimycobacterial activity against Mycobacterium tuberculosis H37Rv infected in CF-1 mouse assessed as change in survival time at 16 mg/kg administrated daily for 14 days with food relative to control"}, "[34]": {"tested_on": "Mycobacterium tuberculosis", "test": "Antimycobacterial activity against Mycobacterium tuberculosis H37Rv infected in CF-1 mouse assessed as change in survival time at 9 mg/kg administrated daily for 14 days with food relative to control"}, "[35]": {"tested_on": "Mycobacterium tuberculosis", "test": "Antimycobacterial activity against Mycobacterium tuberculosis H37Rv infected in CF-1 mouse assessed as change in survival time at 2 mg/kg administrated daily for 14 days with food relative to control"}}}
{"smiles": "CCOc1cc(Cc2cnc(N)nc2N)cc(OCC)c1-n1cccc1", "note": "[EPIROPRIM]", "values": [{"measurement": "Activity", "setting": "Mycobacterium leprae [1]", "result": 325, "unit": "pg"}, {"measurement": "Activity", "setting": "Mycobacterium leprae [2]", "result": 331, "unit": "pg"}, {"measurement": "Activity", "setting": "Mycobacterium leprae [3]", "result": 283, "unit": "pg"}, {"measurement": "Activity", "setting": "Mycobacterium leprae [4]", "result": 0, "unit": "pg"}, {"measurement": "Activity", "setting": "Mycobacterium leprae [5]", "result": 0, "unit": "pg"}, {"measurement": "Activity", "setting": "Mycobacterium leprae [6]", "result": 0, "unit": "pg"}, {"measurement": "Activity", "setting": "Mycobacterium leprae [7]", "result": 1.12, "unit": "pmol"}, {"measurement": "Activity", "setting": "Mycobacterium leprae [8]", "result": 1.44, "unit": "pmol"}, {"measurement": "Activity", "setting": "Mycobacterium leprae [9]", "result": 0.73, "unit": "pmol"}, {"measurement": "Activity", "setting": "Mycobacterium leprae [10]", "result": 0, "unit": "pmol"}, {"measurement": "Activity", "setting": "Mycobacterium leprae [11]", "result": 0, "unit": "pmol"}, {"measurement": "Activity", "setting": "Mycobacterium leprae [12]", "result": 0, "unit": "pmol"}, {"measurement": "Activity", "setting": "Mycobacterium leprae [13]", "result": 0.82, "unit": "pg"}, {"measurement": "Activity", "setting": "Mycobacterium leprae [14]", "result": 0.95, "unit": "pg"}, {"measurement": "Activity", "setting": "Mycobacterium leprae [15]", "result": 317, "unit": "pg"}, {"measurement": "Activity", "setting": "Mycobacterium leprae [16]", "result": 0, "unit": "pg"}, {"measurement": "Activity", "setting": "Mycobacterium leprae [17]", "result": 0, "unit": "pg"}, {"measurement": "Activity", "setting": "Mycobacterium leprae [18]", "result": 0, "unit": "pg"}, {"measurement": "Activity", "setting": "Mycobacterium leprae [19]", "result": 0.413, "unit": "pmol"}, {"measurement": "Activity", "setting": "Mycobacterium leprae [20]", "result": 0.45, "unit": "pmol"}, {"measurement": "Activity", "setting": "Mycobacterium leprae [21]", "result": 0.88, "unit": "pmol"}, {"measurement": "Activity", "setting": "Mycobacterium leprae [22]", "result": 0, "unit": "pmol"}, {"measurement": "Activity", "setting": "Mycobacterium leprae [23]", "result": 0, "unit": "pmol"}, {"measurement": "Activity", "setting": "Mycobacterium leprae [24]", "result": 0, "unit": "pmol"}, {"measurement": "MIC", "setting": "Mycobacterium leprae [25]", "result": 10, "unit": "µg/mL"}]}
{"smiles": "COc1ccc(/N=N/c2ccc(NCCCN3CCCCC3)c3c2CCCC3)cn1", "values": [{"measurement": "MST", "setting": "[26]", "result": 13, "unit": "days"}, {"measurement": "MST", "setting": "[27]", "result": 10, "unit": "days"}, {"measurement": "MST", "setting": "[28]", "result": 46, "unit": "days"}, {"measurement": "MST", "setting": "[29]", "result": 31, "unit": "days"}]}
{"smiles": "COc1ccc(/N=N/c2ccc(NCCCN3CCCCC3)c3c2CCCC3)cc1", "values": [{"measurement": "MST", "setting": "[30]", "result": 50, "unit": "days"}, {"measurement": "MST", "setting": "[28]", "result": 26, "unit": "days"}, {"measurement": "MST", "setting": "[31]", "result": 13, "unit": "days"}, {"measurement": "MST", "setting": "[32]", "result": 11, "unit": "days"}]}
{"smiles": "Clc1ccc(/N=N/c2ccc(NCCCN3CCCCC3)c3c2CCCC3)cc1", "values": [{"measurement": "MST", "setting": "[26]", "result": 33, "unit": "days"}, {"measurement": "MST", "setting": "[33]", "result": 78, "unit": "days"}, {"measurement": "MST", "setting": "[34]", "result": 42, "unit": "days"}, {"measurement": "MST", "setting": "[35]", "result": 11, "unit": "days"}]}
